Assay results taken from patent US11992494B2, “Cyclopentathiophene carboxamide derivatives as platelet activating factor receptor antagonists” (Boehringer Ingelheim International GmbH, priority 2021, dated 2024).

Biological target: PAFR (Homo sapiens, UniProt P25105)
Assay: cellular HTRF IP1 assay: inhibition of PAFR activation by PAF C-16 ligand (endpoint assay)
Format: cell-based
Design: expressed in transfected cells; host or cells: HEK293
Conditions: HEK293 cells overexpressing human PAFR; PAF ligand 11 nM; Table 2
Description: The ability of compounds of formula (I) to inhibit the activation of the PAF receptor (PAFR) by the PAF C-16 ligand (PAF) is determined using the following cellular HTRF IP1 assay (IP1 Gq assay kit from Cisbio, Cat. no.: 62IP1APEJ) in assay buffer (1×HBSS, 20 mM Hepes, pH 7.4, 50 mM LiCl and containing 0.1% (w/v) BSA):
Evaluation of the Inhibition of PAFR Activation Using an Endpoint Assay
HEK293 cells overexpressing human PAFR (produced in-house) are seeded into a Poly-D-Lysine coated 384 well white cell culture microtiter assay plate with lid (15.000 cells per well). Subsequently, the plates are incubated over night at 37° C./5% CO2. On the next day, cells are being washed and subsequently, various concentrations of the test compounds (compounds in 100% DMSO; final concentration of DMSO in wells is 1%) are added to the assay plate via Echo 555 acoustic liquid handler. Plates are then incubated with lid for 90 minutes at 37° C./5% CO2. Thereafter, PAF ligand (Cayman Chemical Company, Item no.: 60900) is added at a final concentration of 11 nM. Plates are then incubated with lid for 60 minutes at 37° C./5% CO2. Then, 5 μl per well of Anti-IP1-Antibody-Cryptate solution and 5 μl per well of IP1-d2 solution are added to all wells of the plate and the plate is incubated for another 60 minutes light protected at room temperature. The emissions at 620 nm and 665 nm (Excitation wavelength: 320 nm) are measured using an Envision Reader (PerkinElmer).

Sequence of PAFR (P25105 whole entry): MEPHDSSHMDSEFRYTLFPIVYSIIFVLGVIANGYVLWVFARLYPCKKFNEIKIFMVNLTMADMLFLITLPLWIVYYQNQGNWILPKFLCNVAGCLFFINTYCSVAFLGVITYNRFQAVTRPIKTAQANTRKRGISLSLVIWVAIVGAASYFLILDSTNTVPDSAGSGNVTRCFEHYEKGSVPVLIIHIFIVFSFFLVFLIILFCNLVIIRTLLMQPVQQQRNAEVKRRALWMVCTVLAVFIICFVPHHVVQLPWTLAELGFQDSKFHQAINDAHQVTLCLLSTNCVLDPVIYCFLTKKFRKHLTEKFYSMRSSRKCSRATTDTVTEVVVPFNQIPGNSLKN

SMILES	IC50 [nM]
Cc1nnc2n1-c1sc3c(c1C(c1ccccc1Cl)=NC21CC1)C[C@H](C(=O)NC12CC(C1)C2)C3 [Example 1, (13′S)—N-{bicyclo[1.1.1]pentan-1-yl}-9′-(2-chlorophenyl)-3′-methyl-16′-thia-2′,4′,5′,8′-tetraazaspiro[cyclopropane-1,7′-tetracyclo[8.6.0.0^2,6.0^11,15]hexadecane]-1′(10′),3′,5′,8′,11′(15′)-pentaene-13′-carboxamide]	1.3
Cc1nnc2n1-c1sc3c(c1C(c1cc(C#N)ccc1Cl)=NC21CC1)C[C@H](C(=O)N1CCOCC1)C3 [Example 2, 4-chloro-3-[(13′S)-3′-methyl-13′-(morpholine-4-carbonyl)-16′-thia-2′,4′,5′,8′-tetraazaspiro[cyclopropane-1,7′-tetracyclo[8.6.0.0^2,6.0^11,15]hexadecane]-1′(10′),3′,5′,8′,11′(15′)-pentaen-9′-yl]benzonitrile]	83
Cc1nnc2n1-c1sc3c(c1C(c1cc(Cl)ccc1Cl)=NC21CC1)C[C@H](C(=O)N1CCOCC1)C3 [Example 3, (13′S)-9′-(2,5-dichlorophenyl)-3′-methyl-13′-(morpholine-4-carbonyl)-16′-thia-2′,4′,5′,8′-tetraazaspiro[cyclopropane-1,7′-tetracyclo[8.6.0.0^2,6.0^11,15]hexadecane]-1′(10′),3′,5′,8′,11′(15′)-pentaene]	17
Cc1nnc2n1-c1sc3c(c1C(c1cc(Br)ccc1Cl)=NC21CC1)C[C@H](C(=O)N1CCOCC1)C3 [Example 4, (13′S)-9′-(5-bromo-2-chlorophenyl)-3′-methyl-13′-(morpholine-4-carbonyl)-16′-thia-2′,4′,5′,8′-tetraazaspiro[cyclopropane-1,7′-tetracyclo[8.6.0.0^2,6.0^11,15]hexadecane]-1′(10′)3′,5′,8′,11′(15′)-pentaene]	26
Cc1ccccc1C1=NC2(CC2)c2nnc(C)n2-c2sc3c(c21)C[C@H](C(=O)N1CCOCC1)C3 [Example 8, (13′S)-3′-methyl-9′-(2-methylphenyl)-13′-(morpholine-4-carbonyl)-16′-thia-2′,4′,5′,8′-tetraazaspiro[cyclopropane-1,7′-tetracyclo[8.6.0.0^2,6.0^11,15]hexadecane]-1′(10′),3′,5′,8′,11′(15′)-pentaene]	8.4
Cc1nnc2n1-c1sc3c(c1C(c1ccccc1O)=NC21CC1)C[C@H](C(=O)N1CCOCC1)C3 [Example 9, 2-[(13′S)-3′-methyl-13′-(morpholine-4-carbonyl)-16′-thia-2′,4′,5′,8′-tetraazaspiro[cyclopropane-1,7′-tetracyclo[8.6.0.0^2,6.0^11,15]hexadecane]-1′(10′),3′,5′,8′,11′(15′)-pentaen-9′-yl]phenol]	52
Cc1nnc2n1-c1sc3c(c1C(c1ccccc1Cl)=NC21CC1)C[C@H](C(=O)N[C@H]1C[C@@H]1C)C3 [Example 12]	2.2
Cc1nnc2n1-c1sc3c(c1C(c1ccccc1Cl)=NC21CC1)C[C@H](C(=O)NC1CCCC1)C3 [Example 14]	1.9
Cc1nnc2n1-c1sc3c(c1C(c1ccccc1Cl)=NC21CC1)C[C@H](C(=O)NC1(C(F)(F)F)CC1)C3 [Example 16]	4.1
Cc1nnc2n1-c1sc3c(c1C(c1ccccc1Cl)=NC21CC1)C[C@H](C(=O)N[C@H]1C[C@@H]1c1ccccc1)C3 [Example 17]	1.2
Cc1nnc2n1-c1sc3c(c1C(c1ccccc1Cl)=NC21CC1)C[C@H](C(=O)NC1(C)CC1)C3 [Example 18]	3.4
Cc1nnc2n1-c1sc3c(c1C(c1ccccc1Cl)=NC21CC1)C[C@H](C(=O)NC1[C@H]2CCC[C@@H]12)C3 (some centres unmarked) [Example 19]	1.6
CCN(C(=O)[C@@H]1Cc2sc3c(c2C1)C(c1ccccc1Cl)=NC1(CC1)c1nnc(C)n1-3)[C@H]1CC[C@H](O)CC1 [Example 20]	11
Cc1nnc2n1-c1sc3c(c1C(c1ccccc1Cl)=NC21CC1)C[C@H](C(=O)NC1CCc2ccc(F)cc21)C3 (some centres unmarked) [Example 22]	0.6
Cc1cc2n(n1)CC(NC(=O)[C@@H]1Cc3sc4c(c3C1)C(c1ccccc1Cl)=NC1(CC1)c1nnc(C)n1-4)CC2 (some centres unmarked) [Example 23]	9.9
Cc1nnc2n1-c1sc3c(c1C(c1ccccc1Cl)=NC21CC1)C[C@H](C(=O)N[C@H]1CCC(F)(F)C1)C3 [Example 24]	2
Cc1nnc2n1-c1sc3c(c1C(c1ccccc1Cl)=NC21CC1)C[C@H](C(=O)NC1CCCC(F)(F)C1)C3 (some centres unmarked) [Example 25]	2.3
Cc1nnc2n1-c1sc3c(c1C(c1ccccc1Cl)=NC21CC1)C[C@H](C(=O)NC1(C)CCCC1)C3 [Example 26]	1.3
Cc1nnc2n1-c1sc3c(c1C(c1ccccc1Cl)=NC21CC1)C[C@H](C(=O)NC1CC(F)(F)C1)C3 [Example 27]	2.1
Cc1nnc2n1-c1sc3c(c1C(c1ccccc1Cl)=NC21CC1)C[C@H](C(=O)N[C@H]1COC[C@H]1C)C3 [Example 28]	6.8
Cc1nnc2n1-c1sc3c(c1C(c1ccccc1Cl)=NC21CC1)C[C@H](C(=O)N[C@H]1CCCOC1)C3 [Example 29]	8.4
Cc1nnc2n1-c1sc3c(c1C(c1ccccc1Cl)=NC21CC1)C[C@H](C(=O)NC1Cc2ccccc2C1)C3 [Example 31]	0.9
Cc1nnc2n1-c1sc3c(c1C(c1ccccc1Cl)=NC21CC1)C[C@H](C(=O)NC1CCc2ncsc2C1)C3 (some centres unmarked) [Example 34]	3.8
Cc1nnc2n1-c1sc3c(c1C(c1ccccc1Cl)=NC21CC1)C[C@H](C(=O)NC1(c2ccc(Cl)cn2)CC1)C3 [Example 35]	1.6
Cc1nnc2n1-c1sc3c(c1C(c1ccccc1Cl)=NC21CC1)C[C@H](C(=O)N[C@H]1CC[C@@H](F)CC1)C3 [Example 36]	3.5
Cc1nnc2n1-c1sc3c(c1C(c1ccccc1Cl)=NC21CC1)C[C@H](C(=O)N(C)C1CCOCC1)C3 [Example 37]	6.6
Cc1nnc2n1-c1sc3c(c1C(c1ccccc1Cl)=NC21CC1)C[C@H](C(=O)NC1CC1(C)C)C3 (some centres unmarked) [Example 40]	1.9
Cc1nnc2n1-c1sc3c(c1C(c1ccccc1Cl)=NC21CC1)C[C@H](C(=O)NC1CCc2cccnc21)C3 (some centres unmarked) [Example 42]	7
Cc1nnc2n1-c1sc3c(c1C(c1ccccc1Cl)=NC21CC1)C[C@H](C(=O)NC1COCC(F)(F)C1)C3 (some centres unmarked) [Example 43]	3.7
Cc1nnc2n1-c1sc3c(c1C(c1ccccc1Cl)=NC21CC1)C[C@H](C(=O)N(C)C1CCCCC1)C3 [Example 44]	1.3

More lines, now with the values ahead:

IC50 [nM]	SMILES
25	Cc1nnc2n1-c1sc3c(c1C(c1cc(N)ccc1Cl)=NC21CC1)C[C@H](C(=O)N1CCOCC1)C3 [Example 6, 4-chloro-3-[(13′S)-3′-methyl-13′-(morpholine-4-carbonyl)-16′-thia-2′,4′,5′,8′-tetraazaspiro[cyclopropane-1,7′-tetracyclo[8.6.0.0^2,6.0^11,15]hexadecane]-1′(10′),3′,5′,8′,11′(15′)-pentaen-9′-yl]aniline]
1.7	Cc1nnc2n1-c1sc3c(c1C(c1ccccc1Cl)=NC21CC1)C[C@H](C(=O)NC1CCC1)C3 [Example 7, (13′S)-9′-(2-chlorophenyl)-N-cyclobutyl-3′-methyl-16′-thia-2′,4′,5′,8′-tetraazaspiro-[cyclopropane-1,7′-tetracyclo[8.6.0.0^2,6.0^11,15]-hexadecane]-1′(10′),3′,5′,8′,11′(15′)-pentaene-13′-carboxamide]
5.2	Cc1nnc2n1-c1sc3c(c1C(c1ccccc1Cl)=NC21CC1)C[C@H](C(=O)N1CCOC(C)(C)C1)C3 [Example 10]
3.6	Cc1nnc2n1-c1sc3c(c1C(c1ccccc1Cl)=NC21CC1)C[C@H](C(=O)N1CC2CC1C2)C3 [Example 11]
4.8	Cc1nnc2n1-c1sc3c(c1C(c1ccccc1Cl)=NC21CC1)C[C@H](C(=O)N1C[C@@H](C)O[C@@H](C)C1)C3 [Example 13]
1	Cc1nnc2n1-c1sc3c(c1C(c1ccccc1Cl)=NC21CC1)C[C@H](C(=O)N[C@H]1CC[C@H](C(F)(F)F)CC1)C3 [Example 15]
1.1	Cc1nnc2n1-c1sc3c(c1C(c1ccccc1Cl)=NC21CC1)C[C@H](C(=O)N(C)C1CCC1)C3 [Example 21]
7.2	Cc1nnc2n1-c1sc3c(c1C(c1ccccc1Cl)=NC21CC1)C[C@H](C(=O)N[C@@H]1COC[C@@H]1C)C3 [Example 30]
1	Cc1nnc2n1-c1sc3c(c1C(c1ccccc1Cl)=NC21CC1)C[C@H](C(=O)N[C@@H]1CCc2ccccc21)C3 [Example 32]
11	Cc1nnc2n1-c1sc3c(c1C(c1ccccc1Cl)=NC21CC1)C[C@H](C(=O)NC1CCOC(C)(C)C1)C3 (some centres unmarked) [Example 33]
1.6	Cc1nnc2n1-c1sc3c(c1C(c1ccccc1Cl)=NC21CC1)C[C@H](C(=O)NC1(C)CCC1)C3 [Example 38]
3.1	Cc1nnc2n1-c1sc3c(c1C(c1ccccc1Cl)=NC21CC1)C[C@H](C(=O)N[C@H]1COC[C@H]1c1ccccc1)C3 [Example 39]
3.9	Cc1nnc2n1-c1sc3c(c1C(c1ccccc1Cl)=NC21CC1)C[C@H](C(=O)N(C)[C@@H]1CCCC[C@@H]1O)C3 [Example 41]

Same assay, conditions: dedicated head-to-head comparison assay run: cyclopropylene vs di-methyl / cyclobutylene analogues

IC50 [nM]	SMILES
2	Cc1nnc2n1-c1sc3c(c1C(c1ccccc1Cl)=NC21CC1)C[C@H](C(=O)NC1CCC1)C3 [Example 7, (13′S)-9′-(2-chlorophenyl)-N-cyclobutyl-3′-methyl-16′-thia-2′,4′,5′,8′-tetraazaspiro-[cyclopropane-1,7′-tetracyclo[8.6.0.0^2,6.0^11,15]-hexadecane]-1′(10′),3′,5′,8′,11′(15′)-pentaene-13′-carboxamide]
